Here are results for eleven compounds from ChEMBL document CHEMBL1201862, “PubChem BioAssay data set” (2004).

Test systems include DU-145; HCC 2998; HCT-15; HL-60; HOP-92; K562; KM12; M14; MDA-MB-231; Malme-3M; NCI-H23; NCI-H522; OVCAR-3; OVCAR-5; RPMI-8226; SF-539; SK-MEL-5; SNB-19; UACC-62.
Holding throughout (experiment): NCI-60 cell line screen, 48 h

Counter-ions that a name gives are not always drawn.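 Each compound was tested at five concentrations against cells in 96-well plates for 48 hours. Abbreviation: GI50, concentration required for 50% inhibition of growth.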 The source made the active and inactive calls. Cut-off read from the data, not from the text of the source: active = GI50 up to about 1.1 µM and inactive = higher. Square brackets hold non-standard residues; d marks the D form. Peptide text beside a SMILES is read from it. Bounds are passed on as bounds.

`Clc1ccc(C2=Cc3nc2c(-c2ccccc2)c2ccc([nH]2)c(-c2ccccc2)c2nc(c(-c4ccccc4)c4ccc([nH]4)c3-c3ccccc3)C=C2)cc1`: the GI50 in the experiment with DU-145 was > 62.5 µM (inactive); with HCC 2998, > 62.5 µM (inactive); in the experiment with HCT-15, over 62.5 µM; in the experiment with HL-60 it was > 62.5 µM (inactive); in the experiment on HOP-92, 61 µM (inactive); in the experiment on K562, > 62.5 µM (inactive). Further, the GI50 in the experiment with KM12, in the experiment on M14, with MDA-MB-231, in the experiment with Malme-3M, in the experiment on NCI-H23 and in the experiment with NCI-H522 was > 62.5 µM (inactive) throughout. The GI50 in the experiment on OVCAR-3 is > 62.5 µM (inactive); in the experiment on OVCAR-5, > 62.5 µM (inactive); in the experiment with RPMI-8226, > 62.5 µM (inactive); in the experiment on SF-539, > 62.5 µM (inactive); with SK-MEL-5, > 62.5 µM (inactive); in the experiment on SNB-19, 46 µM (inactive). For the same compound, the GI50 in the experiment with UACC-62 is > 62.5 µM (inactive).

Take `N#CC1=C(N)OC(c2cccc([N+](=O)[O-])c2)C1(C#N)C#N` (stereo not given): the GI50 in the experiment on DU-145 was 17.3 µM (inactive); with HCC 2998, 20.9 µM (inactive); in the experiment with HCT-15 it was 18.7 µM; in the experiment on HL-60, 11.9 µM (inactive); in the experiment with HOP-92, 16.8 µM (inactive); in the experiment on K562, 26.2 µM (inactive). The GI50 with KM12 is > 10 µM (inactive); in the experiment with M14, 25.8 µM (inactive); in the experiment on MDA-MB-231, > 10 µM (inactive); in the experiment on Malme-3M, 18.3 µM (inactive); in the experiment with NCI-H23, 21.2 µM (inactive); in the experiment with NCI-H522, 14.2 µM (inactive). Moreover, the GI50 in the experiment on OVCAR-5 is 20.6 µM (inactive); with RPMI-8226, 18.3 µM (inactive); with SF-539 it was 21.8 µM (inactive); in the experiment with SK-MEL-5 it was 18 µM (inactive); in the experiment on SNB-19 it was 21.8 µM (inactive); in the experiment with UACC-62 it was 26.6 µM (inactive).

As to `NC1N=C(c2ccc(Cl)cc2)C2=C(N1)c1ccccc1CC2` (stereo not given), the GI50 with DU-145 is 52.4 µM (inactive); in the experiment on HCC 2998, 0.156 µM (active); in the experiment with HCT-15, 3.58 µM; in the experiment on HL-60, 2.81 µM (inactive); in the experiment on HOP-92, 33.6 µM (inactive); with K562, 3.48 µM (inactive). For the same compound, the GI50 in the experiment with KM12 is 4.03 µM (inactive); with M14, 19.9 µM (inactive); in the experiment on MDA-MB-231 it was 10.5 µM (inactive); in the experiment with Malme-3M it was 10.3 µM (inactive); in the experiment on NCI-H23, 30 µM (inactive); in the experiment with NCI-H522, 4.07 µM (inactive). Further, the GI50 in the experiment on OVCAR-3 was 16.7 µM (inactive); in the experiment on OVCAR-5 it was 51.1 µM (inactive); in the experiment with RPMI-8226 it was 2.66 µM (inactive); in the experiment on SF-539, 14.6 µM (inactive); with SK-MEL-5, 14.7 µM (inactive); with SNB-19, > 68.5 µM (inactive). Besides, the GI50 in the experiment with UACC-62 is 15 µM (inactive).

In the case of `CNC(=O)OCc1cnc([N+](=O)[O-])n1C`, the GI50 in the experiment with DU-145 was > 100 µM (inactive); in the experiment with HCC 2998, > 100 µM (inactive); in the experiment on HCT-15, over 100 µM; in the experiment on HL-60, > 100 µM (inactive); with HOP-92, > 100 µM (inactive); with K562, > 100 µM (inactive). Besides, the GI50 in the experiment with KM12, with MDA-MB-231, in the experiment on Malme-3M, in the experiment on NCI-H23, in the experiment on NCI-H522 and in the experiment with OVCAR-3 was > 100 µM (inactive) each time. Further, the GI50 with OVCAR-5, in the experiment with RPMI-8226, in the experiment on SF-539 and in the experiment with SK-MEL-5 was > 100 µM (inactive) throughout.

Regarding `Cc1cc(NS(=O)(=O)c2ccc(NC(=O)c3cccc4c(NNc5ccc(S(N)(=O)=O)cc5)c5ccccc5nc34)cc2)no1`, the GI50 with DU-145 was 86.5 µM (inactive); in the experiment with HCC 2998, 27.3 µM (inactive); in the experiment on HCT-15, 95.1 µM; in the experiment on HL-60, 31 µM (inactive); in the experiment on HOP-92, 22.7 µM (inactive); in the experiment on K562, 33.4 µM (inactive). For the same compound, the GI50 was 38.1 µM (inactive) in the experiment on KM12; 67.1 µM (inactive) in the experiment on M14; 54.5 µM (inactive) with MDA-MB-231; 45.9 µM (inactive) in the experiment on Malme-3M; 64.7 µM (inactive) with NCI-H23; 25 µM (inactive) in the experiment on NCI-H522. Further, the GI50 is 26.7 µM (inactive) in the experiment with OVCAR-3; 39.6 µM (inactive) in the experiment with OVCAR-5; 43.4 µM (inactive) in the experiment on RPMI-8226; > 100 µM (inactive) in the experiment with SF-539; 39.5 µM (inactive) in the experiment with SK-MEL-5; 60.4 µM (inactive) in the experiment with SNB-19. In the experiment with UACC-62, the GI50 was 43.4 µM (inactive).

For `NCCCCN` [PUTRESCINE HYDROCHLORIDE], the GI50 was > 100 µM (inactive) with DU-145; > 100 µM (inactive) with HCC 2998; over 100 µM in the experiment on HCT-15; > 100 µM (inactive) with HL-60; > 100 µM (inactive) in the experiment on HOP-92; > 100 µM (inactive) in the experiment with K562. For the same compound, the GI50 in the experiment with KM12 was 16.3 µM (inactive); with M14, > 100 µM (inactive); with MDA-MB-231 it was > 100 µM (inactive); with Malme-3M, > 100 µM (inactive); in the experiment on NCI-H23 it was > 100 µM (inactive); with NCI-H522, > 100 µM (inactive). Also, the GI50 with OVCAR-3, with OVCAR-5, in the experiment with SF-539, with SK-MEL-5, in the experiment with SNB-19 and in the experiment with UACC-62 was > 100 µM (inactive) in each case.

Regarding `Cc1c(-c2cnccn2)ssc1=S` [OLTIPRAZ], the GI50 with DU-145 was > 100 µM (inactive); in the experiment on HCC 2998 it was > 100 µM (inactive); in the experiment on HCT-15, 62.8 µM; with HL-60, 61.9 µM (inactive); in the experiment on HOP-92, 26.8 µM (inactive); in the experiment with K562, > 100 µM (inactive). Further, the GI50 is > 80.9 µM (inactive) in the experiment on KM12; > 100 µM (inactive) with M14; 63.2 µM (inactive) in the experiment with MDA-MB-231; > 100 µM (inactive) with Malme-3M; 88.5 µM (inactive) in the experiment with NCI-H23; 34.8 µM (inactive) with NCI-H522. Moreover, the GI50 with OVCAR-3 is 99.3 µM (inactive); in the experiment on OVCAR-5, > 100 µM (inactive); in the experiment on RPMI-8226 it was > 100 µM (inactive); in the experiment with SF-539, 63.1 µM (inactive); with SK-MEL-5, 36.3 µM (inactive); in the experiment on SNB-19 it was 68.1 µM (inactive). The GI50 in the experiment on UACC-62 is 76.2 µM (inactive).

For `N=C(N)NCCC[C@H]1NC(=O)[C@@H](CCC(=O)O)NC(=O)[C@@H](CC(=O)O)NC(=O)[C@@H](CCC(=O)O)NC(=O)[C@H](Cc2c[nH]c3ccccc23)NC1=O` (cyclo(W[dE][dD][dE][dR])), the GI50 is > 7.5 µM (inactive) in the experiment on DU-145; > 7.5 µM (inactive) in the experiment with HCC 2998; over 7.5 µM in the experiment with HCT-15; > 7.5 µM (inactive) in the experiment on HL-60; > 7.5 µM (inactive) in the experiment with HOP-92; > 7.5 µM (inactive) in the experiment with K562. The GI50 in the experiment with KM12, with M14, in the experiment with MDA-MB-231, with NCI-H23, in the experiment on NCI-H522 and with OVCAR-3 was > 7.5 µM (inactive) each time. The GI50 in the experiment with OVCAR-5, in the experiment on RPMI-8226, in the experiment with SF-539, in the experiment with SK-MEL-5, with SNB-19 and in the experiment on UACC-62 was > 7.5 µM (inactive) throughout.

As to `N=C(N)NS(=O)(=O)c1ccc(NC(=O)c2ccc3nc4ccccc4c(Nc4ccc(S(=O)(=O)N=C(N)N)cc4)c3c2)cc1`, the GI50 was > 100 µM (inactive) with DU-145; > 100 µM (inactive) in the experiment on HCC 2998; over 100 µM in the experiment on HCT-15; > 100 µM (inactive) in the experiment on HL-60; > 100 µM (inactive) in the experiment with HOP-92; > 100 µM (inactive) in the experiment on K562. Further, the GI50 with KM12, in the experiment with M14, with MDA-MB-231, in the experiment with Malme-3M, in the experiment on NCI-H23 and in the experiment with NCI-H522 was > 100 µM (inactive) each time. Besides, the GI50 with OVCAR-3, in the experiment on OVCAR-5, in the experiment with RPMI-8226, with SF-539, in the experiment on SK-MEL-5 and in the experiment on SNB-19 was > 100 µM (inactive) in each case. For the same compound, in the experiment with UACC-62, the GI50 is 30.1 µM (inactive).

In the case of `O=C1Nc2cc(Cl)ccc2C(=O)N2CCC[C@@H]12`, the GI50 is > 100 µM (inactive) in the experiment on DU-145; > 100 µM (inactive) in the experiment with HCC 2998; over 100 µM in the experiment with HCT-15; > 100 µM (inactive) in the experiment on HL-60; > 100 µM (inactive) with HOP-92; > 100 µM (inactive) in the experiment on K562. For the same compound, the GI50 with KM12 is > 100 µM (inactive); in the experiment with M14, > 100 µM (inactive); in the experiment on MDA-MB-231, > 100 µM (inactive); in the experiment on Malme-3M, > 100 µM (inactive); in the experiment with NCI-H23, > 100 µM (inactive); in the experiment with NCI-H522, 24.9 µM (inactive). Further, the GI50 in the experiment on OVCAR-5, in the experiment with RPMI-8226, in the experiment on SK-MEL-5, with SNB-19 and in the experiment with UACC-62 was > 100 µM (inactive) throughout.

As to `CNN1C(=O)c2c(N)c(C#N)c(-c3ccccc3)c(-c3ccccc3)c2C1=O`, the GI50 with DU-145 was > 100 µM (inactive); with HCC 2998, > 100 µM (inactive); with HCT-15, over 100 µM; in the experiment on HL-60, 30.5 µM (inactive); in the experiment on HOP-92 it was > 100 µM (inactive); in the experiment with K562, 48.9 µM (inactive). The GI50 is 86.9 µM (inactive) with KM12; > 100 µM (inactive) in the experiment on M14; > 100 µM (inactive) in the experiment with MDA-MB-231; > 100 µM (inactive) in the experiment on Malme-3M; 84.1 µM (inactive) with NCI-H522; 34.6 µM (inactive) with OVCAR-3. Moreover, the GI50 is 30.3 µM (inactive) in the experiment on OVCAR-5; 24.7 µM (inactive) with RPMI-8226; 57.7 µM (inactive) in the experiment on SF-539; 62.4 µM (inactive) with SK-MEL-5; > 100 µM (inactive) in the experiment with SNB-19; > 100 µM (inactive) in the experiment with UACC-62.
